In patent US20240344026A1, “Methods to Activate Gamma Delta T cells for Antibody Dependent Cellular Cytotoxicity” (Intellistem, Inc., priority 2023, published 2024):

Legend:
Assay type in all cases: cell-based
Gamma Delta T cells [1] = experiment: Proliferation rate of Gamma Delta T cells on ex vivo stimulation of MNC; conditions: changed stimulant vs standard protocol; zoledronate pulse 100 μM 4 h (day 7); IL-15 10 ng/ml, IL-2 1000 U/ml
Procedure: Cell cultures were performed with peripheral blood obtained from healthy adult donors. Peripheral blood mononuclear cells (MNC) were isolated by density gradient centrifugation with Biocoll (Biochrom, Darmstand, Germany/Bio&SELL, Feucht, Germany). MNC were incubated up to 17 days at 37° C. and 5% CO2.
For cultivation, MNC at a concentration of 5.0E+05/ml were cultured in 50 ml cell culture flasks (Sarstedt, Nuembrecht, Germany) using medium consisting of OpTmizer™ CTSTM T-Cell Expansion Basal Medium, OpTmizer™ CTSTM T-Cell Expansion Supplement (Gibco/Thermo Fisher, Waltham, USA) and 1% 200 mM L-Glutamin. 10 μM Zoledronate were added on day 0 and 1000 U/ml IL-2 were added on day 2. On days 4, 7, 9, 11 and 14 half of the medium was removed and replaced by fresh medium containing 2× 1000 U/ml IL-2 for a final concentration of 1000 U/ml. Cells were not split at any time. From day 4 on cell culture flasks were shaken at 250 rpm. For pulsing zoledronate, 100 μM Zol were added on day 0. […]
Cell counts and cell viability were established using a hemocytometer and the trypan blue exclusion method. Cell count and proliferation rate of Gamma Delta T cells was calculated on the basis of the cell number of the MNC and the percentage of Gamma Delta T cells on the MNC determined by flow cytometry. […]

[2] = tested on: cytoplasmic perforin of Gamma Delta T cells; experiment: Cytoplasmic perforin staining, flow cytometry
Procedure: To evaluate the activity of stimulated Gamma Delta T cells, cytoplasmic perforin and IFN γ were stained every three to four days and Δ MFI was measured by flow cytometry.

tumor cell line Daudi = experiment: Cytotoxicity assay
From the text: To directly determine the anti-tumor activity of Gamma Delta T cells against the tumor cell line Daudi, the present inventors performed a cytotoxicity assay on day 10 of cultivation comparing the prior art (R10F) and preferred embodiment of the present invention (Ko-Op). For this, Alpha Beta T cells and NKp46+ cells were paramagnetically depleted from the cell suspension in order to isolate the Gamma Delta T cells on day 10. The cell composition before and after depletion is shown FIG. 2A.
The present inventors next performed the cytotoxicity assay with the different cultivated MNC. To be able to compare the methods more clearly, the present inventors calculated the lytic units per 10^6 effector cells.

Gamma Delta T cells [3] = experiment: Differentiation of Gamma Delta T cells by CD45RA and CD27 expression
From the text: The present inventors divided the T cells into naive, central memory, effector memory and terminally differentiated Gamma Delta T cells based on expression of CD45RA and CD27.

[4] = changed stimulant vs standard protocol, without combination of modifications
[5] = IL-15 instead of IL-2, combined with pulsing zoledronate
[6] = changed stimulant vs standard protocol

IL-15: interleukin used at 10 ng/ml in place of IL-2
proliferation rate of Gamma Delta T cells (Gamma Delta T cells [1]): significantly lower
cytoplasmic perforin ([2]; IL-15 instead of IL-2, with zoledronate pulse): significant reduction
cytoplasmic perforin [2, 4]: significant reduction
lytic units per 10^6 effector cells (tumor cell line Daudi; with zoledronate pulse, without antibody, vs zoledronate pulse without modification of the interleukins): an increase
percentage of effector Gamma Delta T cells (TEM) (Gamma Delta T cells [3]; IL-15 instead of IL-2): reduced percentage
percentage of central memory Gamma Delta T cells (TCM) (Gamma Delta T cells [3]; [5]): elevated percentage
percentage of effector Gamma Delta T cells (TEM) (Gamma Delta T cells [3]; [5]): reduced percentage
percentage of central memory Gamma Delta T cells (TCM) (Gamma Delta T cells [3]; [6]): elevated percentage

O=P(O)(O)C(O)(Cn1ccnc1)P(=O)(O)O [zoledronate, reference compound]
proliferation rate of Gamma Delta T cells (Gamma Delta T cells [1]): significant lower proliferation rate
cytoplasmic perforin [2, 4]: did not lead to any significant change
lytic units per 10^6 effector cells (tumor cell line Daudi; without therapeutic antibodies, vs standard protocol): significant increase
percentage of central memory Gamma Delta T cells (TCM) (Gamma Delta T cells [3]; [6]): more TCM
